In brackets after ≈: the same amount, converted by molar mass.
Tests used:
Test in all cases: ≥ marks a high value that may be exact or a test limit, other limits are often not marked, values filed in µg/mL are converted to µM
[1] = system: Staphylococcus aureus 90857
[2] = system: Pseudomonas syringae pv. syringae DSM 10604
[3] = system: Pseudomonas syringae pv. tomato DC3000
[4] = system: Pseudomonas corrugata DSM 7228
[5] = system: Pectobacterium carotovorum subsp. carotovorum DSM 30168
[6] = system: Clavibacter michiganensis subsp. michiganensis DSM 46294
[7] = system: Xanthomonas vesicatoria DSM 50861
Aspergillus fumigatus = system: Aspergillus fumigatus
[8] = system: Staphylococcus aureus ATCC 6538P
Escherichia coli JM109 = system: Escherichia coli JM109
Staphylococcus aureus = system: Staphylococcus aureus
[9] = system: Pseudomonas aeruginosa Ps4
Escherichia coli JW0013 = system: Escherichia coli JW0013

Structure (SMILES) | MIC [1] [µM] | MIC [2] [µM] | MIC [3] [µM] | MIC [4] [µM] | MIC [5] [µM] | MIC [6] [µM] | MIC [7] [µM] | MIC [9] [µM] | other results
CC(C)C[C@H](NC(=O)[C@H](CCCN=C(N)N)NC(=O)[C@H](CCCCN)NC(=O)[C@H](CCCCN)NC(=O)[C@@H](N)CCCN=C(N)N)C(=O)N[C@@H](CCCCN)C(=O)N[C@H](C(=O)N[C@H](C(=O)N[C@@H](CCCCN)C(=O)N[C@@H](CCCN=C(N)N)C(=O)N[C@@H](CC(C)C)C(=O)N[C@H](C(N)=O)C(C)C)C(C)C)C(C)C [RKKRLKVVKRLV] | ≥ 62.5 | 3.28 (≈ 5 µg/mL) | 1.64 (≈ 2.5 µg/mL) | 6.57 (≈ 9.99 µg/mL) | 6.57 (≈ 9.99 µg/mL) | 6.57 (≈ 9.99 µg/mL) | 6.57 (≈ 9.99 µg/mL) | – | –
CC(C)C[C@H](NC(=O)[C@H](Cc1ccccc1)NC(=O)[C@H](CC(C)C)NC(=O)[C@H](CCCN=C(N)N)NC(=O)[C@H](CC(C)C)NC(=O)[C@H](Cc1ccccc1)NC(=O)[C@H](CC(C)C)NC(=O)[C@H](CCCN=C(N)N)NC(=O)[C@H](Cc1ccccc1)NC(=O)[C@H](CC(C)C)NC(=O)[C@H](CCCN=C(N)N)NC(=O)[C@H](Cc1ccccc1)NC(=O)[C@H](CC(C)C)NC(=O)[C@H](Cc1ccccc1)NC(=O)[C@H](CC(C)C)NC(=O)[C@H](CCCN=C(N)N)NC(=O)[C@H](CCCN=C(N)N)NC(=O)[C@@H](N)CCCCN)C(=O)N[C@@H](CCCCN)C(=O)N[C@@H](CCCCN)C(N)=O [KRRLFLFRLFRLFLRLFLKK] | 4 (≈ 10.8 µg/mL) | 3.69 (≈ 10 µg/mL) | 1.84 (≈ 5 µg/mL) | 3.69 (≈ 10 µg/mL) | 3.69 (≈ 10 µg/mL) | 0.922 (≈ 2.5 µg/mL) | 0.922 (≈ 2.5 µg/mL) | – | –
CC(C)[C@H](NC(=O)[C@@H](N)CCCCN)C(=O)N[C@@H](C)C(=O)N[C@@H](CCCCN)C(=O)N[C@@H](CCC(N)=O)C(=O)N[C@@H](CCC(=O)O)C(=O)N[C@@H](CCCCN)C(=O)N[C@@H](CCCCN)C(=O)N[C@@H](CCCCN)C(=O)N[C@@H](CCCCN)C(=O)N[C@@H](CCCCN)C(=O)N[C@H](C(=O)NCC(=O)N[C@@H](CCCN=C(N)N)C(=O)N[C@@H](C)C(=O)N[C@@H](CCCCN)C(=O)N[C@@H](CCCN=C(N)N)C(=O)N[C@@H](CCCN=C(N)N)C(=O)O)[C@@H](C)O [KVAKQEKKKKKTGRAKRR] | – | – | – | – | – | – | – | – | MIC (Aspergillus fumigatus): 18 µM (≈ 39 µg/mL)
CC[C@H](C)[C@H](NC(=O)[C@H](C)NC(=O)[C@H](CC(C)C)NC(=O)[C@H](CCCN=C(N)N)NC(=O)[C@H](CC(C)C)NC(=O)[C@@H](NC(=O)[C@H](CCCN=C(N)N)NC(=O)[C@H](CC(C)C)NC(=O)[C@@H](NC(=O)[C@H](CC(C)C)NC(=O)[C@H](CCCN=C(N)N)NC(=O)[C@H](CCCN=C(N)N)NC(=O)[C@@H](N)CCCCN)[C@@H](C)CC)[C@@H](C)CC)C(=O)N[C@@H](CCCN=C(N)N)C(=O)N[C@@H](C)C(=O)N[C@@H](CC(C)C)C(=O)N[C@H](C(=O)N[C@@H](CCCCN)C(=O)N[C@@H](CCCCN)C(=O)N[C@@H](CCCN=C(N)N)C(N)=O)C(C)C [KRRLILRILRLAIRALVKKR] | 4 (≈ 9.94 µg/mL) | 2.01 (≈ 5 µg/mL) | 4.02 (≈ 10 µg/mL) | 2.01 (≈ 5 µg/mL) | 4.02 (≈ 10 µg/mL) | 0.101 (≈ 0.25 µg/mL) | 0.101 (≈ 0.25 µg/mL) | – | –
CC[C@H](C)[C@H](NC(=O)[C@H](CCCN=C(N)N)NC(=O)[C@H](CCCN=C(N)N)NC(=O)[C@H](CC(C)C)NC(=O)[C@H](Cc1ccccc1)NC(=O)[C@H](CCCN=C(N)N)NC(=O)[C@@H](N)CC(C)C)C(=O)N[C@@H](CC(C)C)C(=O)N[C@@H](CCCN=C(N)N)C(=O)N[C@@H](CCCN=C(N)N)C(=O)N[C@@H](CC(C)C)C(=O)N[C@@H](CC(C)C)C(N)=O [LRFLRRILRRLL] | 0.625 (≈ 1.02 µg/mL) | 0.308 (≈ 0.5 µg/mL) | 0.615 (≈ 0.999 µg/mL) | 0.308 (≈ 0.5 µg/mL) | 1.54 (≈ 2.5 µg/mL) | 0.308 (≈ 0.5 µg/mL) | 0.308 (≈ 0.5 µg/mL) | – | –
CC[C@H](C)[C@H](NC(=O)[C@H](C)NC(=O)[C@H](CC(C)C)NC(=O)[C@H](CS)NC(=O)[C@H](Cc1cnc[nH]1)NC(=O)[C@H](C)NC(=O)[C@H](C)NC(=O)[C@H](CS)NC(=O)[C@@H](N)CC(C)C)C(=O)N[C@@H](CCCN=C(N)N)C(=O)N[C@@H](CCCN=C(N)N)C(=O)N[C@@H](CCCN=C(N)N)C(N)=O [LCAAHCLAIRRR] | – | – | – | – | – | – | – | – | MIC [8]: 5.42 µM; MIC (Escherichia coli JM109): 17.4 µM; MIC (Staphylococcus aureus): > 46.3 µM
NC(=O)C[C@H](NC(=O)[C@H](CCCN=C(N)N)NC(=O)[C@H](CCCN=C(N)N)NC(=O)[C@H](Cc1c[nH]c2ccccc12)NC(=O)[C@@H](N)Cc1ccccc1)C(=O)N[C@@H](Cc1ccccc1)C(=O)N[C@@H](Cc1c[nH]c2ccccc12)C(=O)N[C@@H](CCCN=C(N)N)C(=O)N[C@@H](CCCN=C(N)N)C(N)=O [FWRRNFWRR] | – | – | – | – | – | – | – | ≥ 176 | –
CC[C@H](C)[C@H](NC(=O)[C@H](CC(N)=O)NC(=O)[C@H](CCCN=C(N)N)NC(=O)[C@H](CCC(N)=O)NC(=O)[C@H](Cc1c[nH]c2ccccc12)NC(=O)[C@@H](N)Cc1ccccc1)C(=O)N[C@@H](CCCCN)C(=O)N[C@H](C(=O)N[C@@H](CCCN=C(N)N)C(N)=O)C(C)C [FWQRNIKVR] | – | – | – | – | – | – | – | ≥ 201 | –
NC(=O)[C@H](CCCN=C(N)N)NC(=O)[C@H](Cc1c[nH]c2ccccc12)NC(=O)[C@H](CCCN=C(N)N)NC(=O)[C@H](Cc1c[nH]c2ccccc12)NC(=O)[C@H](CCCN=C(N)N)NC(=O)[C@H](Cc1c[nH]c2ccccc12)NC(=O)[C@@H](N)Cc1ccccc1 [FWRWRWR] | – | – | – | – | – | – | – | ≥ 52.4 | –
CC[C@H](C)[C@H](NC(=O)[C@H](CC(N)=O)NC(=O)[C@H](CCCN=C(N)N)NC(=O)[C@H](CCC(N)=O)NC(=O)[C@H](Cc1c[nH]c2ccccc12)NC(=O)[C@@H](N)Cc1ccccc1)C(=O)N[C@@H](CCCN=C(N)N)C(=O)N[C@@H](CCCCN)C(=O)N[C@H](C(=O)N[C@@H](CCCCN)C(=O)N[C@@H](CCCCN)C(=O)N[C@@H](CCCCN)C(=O)N[C@@H](CCCCN)C(N)=O)C(C)C [FWQRNIRKVKKKK] | – | – | – | – | – | – | – | ≥ 142 | –
CC[C@H](C)[C@H](NC(=O)[C@H](CC(N)=O)NC(=O)[C@H](CCCN=C(N)N)NC(=O)[C@H](CCC(N)=O)NC(=O)[C@H](Cc1c[nH]c2ccccc12)NC(=O)[C@@H](N)Cc1ccccc1)C(=O)N[C@@H](CCCN=C(N)N)C(=O)N[C@@H](CCCCN)C(=O)N[C@@H](Cc1ccccc1)C(=O)N[C@@H](CCCN=C(N)N)C(N)=O [FWQRNIRKFR] | – | – | – | – | – | – | – | ≥ 172 | –
CC[C@H](C)[C@H](NC(=O)[C@H](CCCN=C(N)N)NC(=O)[C@H](CCCN=C(N)N)NC(=O)[C@@H]1CCCN1C(=O)[C@@H]1CCCN1C(=O)[C@H](CCCN=C(N)N)NC(=O)[C@@H]1CCCN1C(=O)[C@H](CCCN=C(N)N)NC(=O)[C@@H]1CCCN1C(=O)[C@H](CC(C)C)NC(=O)[C@H](Cc1ccc(O)cc1)NC(=O)[C@@H]1CCCN1C(=O)[C@@H]1CCCN1C(=O)[C@H](CCCCN)NC(=O)[C@H](CC(=O)O)NC(=O)[C@@H](N)Cc1c[nH]c2ccccc12)C(=O)N[C@@H](Cc1ccc(O)cc1)C(=O)N[C@@H](CC(N)=O)C(=O)N[C@@H](CCCN=C(N)N)C(N)=O [WDKPPYLPRPRPPRRIYNR] | – | – | – | – | – | – | – | – | MIC (Escherichia coli JW0013): 1.94 µM (≈ 4.8 µg/mL)
CC(C)[C@H](NC(=O)[C@H](CCCCN)NC(=O)[C@H](CCCN=C(N)N)NC(=O)[C@H](Cc1ccccc1)NC(=O)[C@H](CC(N)=O)NC(=O)[C@H](CCCN=C(N)N)NC(=O)[C@H](CCC(N)=O)NC(=O)[C@H](Cc1c[nH]c2ccccc12)NC(=O)[C@@H](N)Cc1ccccc1)C(=O)N[C@@H](CCCN=C(N)N)C(N)=O [FWQRNFRKVR] | – | – | – | – | – | – | – | ≥ 174 | –
